For one data set, the system named is ABUTH. Put plainly: Herbicidal post-emergence action (Table B1). Type of data set: in vivo, Abutilon theophrasti. To be noted: application rate 1280 g/ha; treated at one-leaf stage; rated visually after about 3 weeks vs untreated controls (100% = plants have died, 0% = like control plants). The procedure, abridged: (§1)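 Each pot held sandy loam sown with a single mono- or dicot weed species, grown under controlled greenhouse conditions. Test plants were sprayed at the one-leaf stage, and after about 3 weeks of further growth the percentage activity relative to untreated plants was rated visually.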

In data set [1] the test system is STEME. Put plainly: Herbicidal post-emergence action (Table B9). Type of data set: in vivo, Stellaria media. To be noted: application rate 1280 g/ha. As to the method:
Seeds of mono- and dicotyledonous weed plants were placed in plastic pots in sandy loam soil (doubly sown with in each case one species of mono- or dicotyledonous weed plants per pot), covered with soil and cultivated in a greenhouse under controlled growth conditions. 2 to 3 weeks after sowing, the test plants were treated at the one-leaf stage. […] After the test plants had been kept in the greenhouse under optimum growth conditions for about 3 weeks, the activity of the preparations was rated visually in comparison to untreated controls. For example, 100% activity = the plants have died, 0% activity = like control plants.

The subject of data set [2] is AMARE. Put plainly: Herbicidal pre-emergence action (Table A8). Type of data set: in vivo, Amaranthus retroflexus. The settings on record: application rate 1280 g/ha; visual grading after ca. 3 weeks vs untreated controls (100% = plants have died off, 0% = as control plants). In a few lines:
(§2)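 Pots: sandy loam. Sowing: one mono- and one dicot weed species together per pot. Seeds covered with soil.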

Data set [3] relates to AMARE. The data set is described as follows: Herbicidal post-emergence action (Table B11). To be noted: application rate 1280 g/ha. Type of data set: in vivo, Amaranthus retroflexus. In a few lines:
as §1

Data set [4] concerns ECHCG. Put plainly: Herbicidal post-emergence action (Table B3). Type of data set: in vivo, Echinochloa crus-galli. To be noted: Echinochloa crus-galli, post-emergence, 504 h; application rate 1280 g/ha; rated visually after about 3 weeks; read-out: post-emergence activity against ECHCG. In a few lines: as §1
For data set [5], the system named is LOLRI. The data set is described as follows: Herbicidal pre-emergence action (Table A3). Type of data set: in vivo, Lolium rigidum. To be noted: visual grading after ca. 3 weeks. The procedure, abridged: as §2
For data set [6], the system named is VERPE. Put plainly: Herbicidal post-emergence action (Table B10). Type of data set: in vivo, Veronica persica. To be noted: application rate 1280 g/ha. In a few lines:
as §1

The test system of data set [7] is POAAN. Put plainly: Herbicidal pre-emergence action (Table A7). Type of data set: in vivo, Poa annua. To be noted: visual grading after ca. 3 weeks. In a few lines:
as §2

Data set [8] deals with SETVI. The data set is described as follows: Herbicidal pre-emergence action (Table A5). Type of data set: in vivo, Setaria viridis. To be noted: visual grading after ca. 3 weeks. In a few lines:
as §2

Data set [9] relates to POAAN. Put plainly: Herbicidal post-emergence action (Table B7). Type of data set: in vivo, Poa annua. The procedure, abridged: as §1
For data set [10], the system named is SETVI. The data set is described as follows: Herbicidal post-emergence action (Table B8). Type of data set: in vivo, Setaria viridis. The settings on record: application rate 1280 g/ha. The procedure, abridged:
as §1

The test system of a further data set is KCHSC. Put plainly: Herbicidal pre-emergence action (Table A10). Type of data set: in vivo, Kochia scoparia. The settings on record: application rate 1280 g/ha; visual grading after ca. 3 weeks. The procedure, abridged:
as §2

The test system of data set [11] is STEME. Put plainly: Herbicidal pre-emergence action (Table A6). Type of data set: in vivo, Stellaria media. The settings on record: visual grading after ca. 3 weeks. The procedure, abridged: as §2
Data set [12] relates to TRZAS. The data set is described as follows: Pre-emergence effects on crop plants (Table D2). To be noted: crop plant; application rate 80 g/ha; visual grading after ca. 3 weeks. Type of data set: in vivo, Triticum aestivum.
For data set [13], the system named is ALOMY. Put plainly: Herbicidal pre-emergence action, section C (Table C2). Type of data set: in vivo, Alopecurus myosuroides. To be noted: application rate 80 g/ha; visual grading after ca. 3 weeks.
Description: (§4) Seeds of mono- and dicotyledonous weed plants and crop plants were sown, in plastic or organic planting pots, in sandy loam and covered with soil. The compounds according to the invention, formulated in the form of wettable powders (WP) or as emulsifiable concentrates (EC), were applied to the surface of the covering soil as aqueous suspension or emulsion, with the addition of 0.5% of an additive, at an application rate of 600 1 of water/ha (converted). Following treatment, the pots were placed in a greenhouse and kept under optimum growth conditions for the test plants.
Data set [14] concerns VIOTR. The data set is described as follows: Herbicidal post-emergence action, section E (Table E10). Type of data set: in vivo, Viola tricolor. To be noted: application rate 320 g/ha; assessed visually after ca. 3 weeks. The text has this:
(§3) 2 to 3 weeks after sowing, the test plants were sprayed in the single-leaf stage.

Data set [15] concerns VERPE. Put plainly: Herbicidal post-emergence action, section E (Table E9). Type of data set: in vivo, Veronica persica. To be noted: application rate 320 g/ha; assessed visually after ca. 3 weeks.
Description: as §3

In data set [16] the test system is TRZAS. Put plainly: Post-emergence effects on crop plants (Table F2). Type of data set: in vivo, Triticum aestivum. The settings on record: application rate 320 g/ha, crop plant TRZAS.
Description: as §3

In data set [17] the test system is ZEAMX. Put plainly: Post-emergence effects on crop plants (Table F1). Type of data set: in vivo, Zea mays. The settings on record: application rate 320 g/ha, crop plant ZEAMX.
Description: as §3

In data set [18] the test system is BRSNW. The data set is described as follows: Post-emergence effects on crop plants (Table F5). Type of data set: in vivo, Brassica napus. To be noted: application rate 320 g/ha, crop plant BRSNW.
Description: as §3

The subject of data set [19] is ECHCG. Put plainly: Herbicidal pre-emergence action (Table A2). To be noted: application rate 1280 g/ha; visual grading after ca. 3 weeks. Type of data set: in vivo, Echinochloa crus-galli. In a few lines:
as §2

Data set [20] concerns BRSNW. Put plainly: Pre-emergence effects on crop plants (Table D5). Type of data set: in vivo, Brassica napus. The settings on record: crop plant; application rate 80 g/ha; visual grading after ca. 3 weeks.
Description: Seeds of mono- and dicotyledonous weed plants and crop plants were sown, in plastic or organic planting pots, in sandy loam and covered with soil. The compounds according to the invention, formulated in the form of wettable powders (WP) or as emulsifiable concentrates (EC), were applied to the surface of the covering soil as aqueous suspension or emulsion, with the addition of 0.5% of an additive, at an application rate of 600 1 of water/ha (converted).
Following treatment, the pots were placed in a greenhouse and kept under optimum growth conditions for the test plants.
The subject of data set [21] is MATIN. Put plainly: Herbicidal post-emergence action (Table B6). Type of data set: in vivo, Matricaria inodora. To be noted: application rate 320 g/ha; rated visually after about 3 weeks. The procedure, abridged:
as §1

In data set [22] the test system is ALOMY. The data set is described as follows: Herbicidal post-emergence action, section E (Table E2). Type of data set: in vivo, Alopecurus myosuroides. To be noted: application rate 320 g/ha; assessed visually after ca. 3 weeks.
Description: as §3

For data set [23], the system named is ECHCG. The data set is described as follows: Herbicidal pre-emergence action, section C (Table C6). The settings on record: application rate 80 g/ha; visual grading after ca. 3 weeks. Type of data set: in vivo, Echinochloa crus-galli.
For data set [24], the system named is ECHCG. The data set is described as follows: Herbicidal post-emergence action, section E (Table E5). The settings on record: application rate 320 g/ha; assessed visually after ca. 3 weeks. Type of data set: in vivo, Echinochloa crus-galli.
Description: as §3

Data set [25] has as its system VIOTR. The data set is described as follows: Herbicidal pre-emergence action, section C (Table C12). The settings on record: application rate 320 g/ha; visual grading after ca. 3 weeks. Type of data set: in vivo, Viola tricolor.
The subject of a further data set is GLXMA. The data set is described as follows: Pre-emergence effects on crop plants (Table D4). Type of data set: in vivo, Glycine max. To be noted: crop plant; application rate 320 g/ha; visual grading after ca. 3 weeks.
A further data set concerns ORYZA. The data set is described as follows: Post-emergence effects on crop plants (Table F3). Type of data set: in vivo, Oryza sativa. To be noted: application rate 320 g/ha, crop plant ORYZA.
Description: as §3

The next data set concerns DIGSA. Put plainly: Herbicidal pre-emergence action, section C (Table C5). To be noted: application rate 80 g/ha; visual grading after ca. 3 weeks. Type of data set: in vivo, Digitaria sanguinalis.
The subject of data set [26] is VERPE. The data set is described as follows: Herbicidal pre-emergence action, section C (Table C11). The settings on record: application rate 80 g/ha; visual grading after ca. 3 weeks. Type of data set: in vivo, Veronica persica.
In data set [27] the test system is SETVI. The data set is described as follows: Herbicidal pre-emergence action, section C (Table C10). To be noted: application rate 320 g/ha; visual grading after ca. 3 weeks. Type of data set: in vivo, Setaria viridis.
Data set [28] relates to ZEAMX. The data set is described as follows: Pre-emergence effects on crop plants (Table D1). Type of data set: in vivo, Zea mays. The settings on record: crop plant; application rate 320 g/ha; visual grading after ca. 3 weeks.
Data set [29] has as its system MATIN. Put plainly: Herbicidal pre-emergence action (Table A4). Type of data set: in vivo, Matricaria inodora. The settings on record: application rate 1280 g/ha; visual grading after ca. 3 weeks. The procedure, abridged:
as §2

For data set [30], the system named is LOLRI. Put plainly: Herbicidal pre-emergence action, section C (Table C7). Type of data set: in vivo, Lolium rigidum. The settings on record: application rate 320 g/ha; visual grading after ca. 3 weeks.

Description for DIGSA: as §4

As for `N#Cc1ccc(CN2CCCC3(CCCN(Cc4ccc(C#N)s4)C3=O)C2=O)s1` (single isomer, unassigned; (-)) [I-208, (-)-2,8-bis[(5-cyanothiophen-2-yl)methyl]-2,8-diazaspiro[5.5]undecane-1,7-dione], in the data set with ABUTH, the “post-emergence activity against ABUTH” value was determined as 90%. In the data set on STEME [1], the “post-emergence activity against STEME” value was found to be 90%. In the data set with AMARE [2], the “pre-emergence activity against AMARE” value is 100%. Moreover, the “post-emergence activity against AMARE” value in the data set on AMARE [3] amounted to 90%. The pest or weed control at 1280 g/ha in the data set on ECHCG [4] was 90%; with LOLRI [5] (Lolium rigidum, pre-emergence, 504 h, application rate 1280 g/ha, read-out: pre-emergence activity against LOLRI), 90%; with POAAN [7] (Poa annua, pre-emergence, 504 h, application rate 1280 g/ha, read-out: pre-emergence activity against POAAN), 100%. Also, the “post-emergence activity against VERPE” value with VERPE [6] is reported as 90%. Moreover, the “pre-emergence activity against SETVI” value in the data set with SETVI [8] (application rate 1280 g/ha) came to 90%. Moreover, in the data set with POAAN [9] (application rate 1280 g/ha), the “post-emergence activity against POAAN” value amounted to 90%. In addition, the “post-emergence activity against SETVI” value with SETVI [10] stood at 90%. Further, the “pre-emergence activity against KCHSC” value in the data set with KCHSC came out at 90%. Moreover, in the data set on STEME [11] (application rate 1280 g/ha), the “pre-emergence activity against STEME” value came out at 100%.

Turning to `O=C1N(Cc2c(F)ccc(F)c2F)CCCC12CCCN(Cc1c(F)ccc(F)c1F)C2=O` (racemic) [I-013], in the data set on TRZAS [12], the “pre-emergence activity against TRZAS” value was 20%. For the same compound, in the data set with ABUTH, the “post-emergence activity against ABUTH” value was 90%. In addition, the “post-emergence activity against STEME” value with STEME [1] was 90%. In addition, the “pre-emergence activity against ALOMY” value in the data set on ALOMY [13] came out at 80%. In the data set with VIOTR [14], the “post-emergence activity against VIOTR” value stood at 90%. In addition, the “post-emergence activity against VERPE” value with VERPE [15] came to 80%. Also, the “post-emergence activity against TRZAS” value in the data set on TRZAS [16] is on record as 0%. For the same compound, the “post-emergence activity against ZEAMX” value in the data set on ZEAMX [17] was 10%. Further, in the data set on BRSNW [18], the “post-emergence activity against BRSNW” value is reported as 0%. In the data set on AMARE [2], the “pre-emergence activity against AMARE” value amounted to 90%. For the same compound, the “pre-emergence activity against ECHCG” value in the data set with ECHCG [19] and in the data set with ECHCG [23] was 100% in each case. For the same compound, the “post-emergence activity against AMARE” value in the data set with AMARE [3] amounted to 90%. Also, the “pre-emergence activity against LOLRI” value is listed as 100% in the data set on LOLRI [5] (application rate 320 g/ha) and 90% with LOLRI [30]. For the same compound, in the data set with POAAN [7] (application rate 320 g/ha), the “pre-emergence activity against POAAN” value turned out to be 100%. Besides, the “pre-emergence activity against SETVI” value worked out at 100% with SETVI [8] (application rate 320 g/ha) and 90% with SETVI [27]. In addition, the “post-emergence activity against POAAN” value in the data set with POAAN [9] (application rate 320 g/ha) came to 90%. For the same compound, the “pre-emergence activity against BRSNW” value in the data set with BRSNW [20] is listed as 10%. Besides, in the data set with MATIN [21], the “post-emergence activity against MATIN” value is recorded as 90%. In the data set on ALOMY [22], the “post-emergence activity against ALOMY” value is recorded as 80%. For the same compound, the “post-emergence activity against ECHCG” value in the data set with ECHCG [24] came out at 80%. For the same compound, the “pre-emergence activity against VIOTR” value in the data set on VIOTR [25] is 80%. Further, the “pre-emergence activity against GLXMA” value in the data set on GLXMA is 0%. The “post-emergence activity against ORYZA” value with ORYZA is reported as 0%. The “pre-emergence activity against DIGSA” value with DIGSA stood at 100%. The “pre-emergence activity against VERPE” value in the data set with VERPE [26] amounted to 90%. The “pre-emergence activity against STEME” value with STEME [11] (application rate 320 g/ha) worked out at 100%. Besides, the “pre-emergence activity against ZEAMX” value in the data set with ZEAMX [28] came out at 10%. The “pre-emergence activity against MATIN” value in the data set with MATIN [29] is on record as 90%.
